# Measured values taken from patent publication US20220023289A1, “Application Of Pyrroloquinoline Quinone In Preparation Of Medicament Used For Preventing And Treating Acute Altitude Sickness And Acute Altitude Hypoxia Injury” (priority 2018, published 2022).
# Assays:
# [1] = system: rats exposed to acute altitude hypoxia; assay: Protein metabolism in rats exposed to acute altitude hypoxia; format: in vivo, Wistar rat
# Protocol: (§1) Select healthy Wistar rats weight 160-200 g, half female and half male. After feeding for 3 days, these Wistar rats are randomly divided into ten groups according to their body weight, each group has 16±2 rats. The groups are divided as follows: five groups of the hypoxic exposure drug test group, respectively, are given 0.91 mg/kg, 1.83 mg/kg, 3.66 mg/kg, 7.31 mg/kg, and 14.63 mg/kg drugs. […] After continuous intragastric administration for 7 days, the animals in the hypoxic exposure group are simultaneously put into the decompression and hypoxia compound experimental chamber, the hatch is closed, and the pressure is reduced at a speed of 10 m/s. After being raised to an altitude of 6000 m and maintained for 8 hours, the speed in 10 m/s drops is reduced to normal altitude, open the hatch, and then take out the animal, collect blood samples (after standing for 1 hour, the supernatant is centrifuged and stored at −20° C.), and liver tissue samples. Detection indicator includes body weight, serum blood glucose, ATP, lactic acid, endothelin, nitric oxide, SOD, CO, MDA related to oxidative stress, and total protein, albumin, triglycerides, total cholesterol, high-density lipoprotein cholesterol, low-density lipoprotein cholesterol, glutamic pyruvic transaminase, total bilirubin, gluamic oxalacetic transaminase, serum urea nitrogen, creatinine, uric acid, lactate dehydrogenase, creatine kinase, α-hydroxybutyrate dehydrogenase; liver ATP, hepatic glycogen. Except that the formal oxygen control animal group is not put into the decompression and hypoxia compound experimental chamber, other experimental conditions and detection indicators are the same.
# (§2) Measure blood glucose, total protein, albumin, triglycerides, total cholesterol, high-density lipoprotein cholesterol, low-density lipoprotein cholesterol, glutamic-pyruvic transaminase, total bilirubin, glutamic oxalacetic transaminase, serum urea nitrogen, creatinine, uric acid, lactate dehydrogenase, creatine kinase, α-hydroxybutyrate dehydrogenase, blood homocysteine by using an automatic blood biochemical analyzer.
# [2] = system: rats exposed to acute altitude hypoxia; assay: Lipid metabolism in rats exposed to acute altitude hypoxia; format: in vivo, Wistar rat
# Protocol: as §1, §2
# [3] = Body weight of mice before closed hypoxia tolerance test
# [4] = system: rats exposed to acute altitude hypoxia; assay: Myocardial enzyme activity in rats exposed to acute altitude hypoxia; format: in vivo, Wistar rat
# Protocol: as §1, §2
# [5] = female rats, hypoxia, 0.91 mg/kg
# [6] = female rats, hypoxia, 1.83 mg/kg
# [7] = female rats, hypoxia, 3.66 mg/kg
# [8] = female rats, hypoxia, 14.63 mg/kg
# [9] = female rats, normoxia, 3.66 mg/kg
# [10] = male rats exposed to hypoxia, low-dose
# [11] = male rats, hypoxia, 14.63 mg/kg
# [12] = female rats, hypoxia, 7.31 mg/kg
smiles,measurement,setting,value
"O=C(O)c1cc(C(=O)O)c2c(n1)C(=O)C(=O)c1cc(C(=O)O)[nH]c1-2 [PQQ, pyrroloquinoline quinone]",effect on serum total protein content,"[1]; female rats, high-dose",the same as the hypoxia model group
same,albumin (second column),[1]; [5],31.03 ± 0.98 g/L
same,albumin (second column),[1]; [6],29.67 ± 0.98 g/L
same,albumin (second column),[1]; [7],29.33 ± 0.62 g/L
same,albumin (second column),[1]; [8],30.16 ± 1.40 g/L
same,albumin (second column),"[1]; female rats, hypoxia, 7.3 l mg/kg",31.49 ± 0.70 g/L
same,effect on total serum protein content,"[1]; female rats, normoxia",no significant effects
same,albumin (second column),[1]; [9],30.87 ± 1.41 g/L
same,effect on serum albumin,[1]; hypoxia exposed female rats (PQQ low-dose),can reduce the effect of serum albumin in female rats increase caused by hypoxic exposure
same,effect on serum total protein content,"[1]; hypoxia exposed female rats, low-dose",can slightly reduce
same,effect on serum albumin content,[1]; [10],can reduce the effect of hypoxia exposure on the increase in serum albumin content
same,effect on serum total protein content,[1]; [10],can slightly reduce
same,effect on serum total protein content,"[1]; male rats, high-dose",the same as that of the hypoxia model group
same,albumin (second column),"[1]; male rats, hypoxia, 0.91 mg/kg",22.55 ± 2.53 g/L
same,albumin (second column),"[1]; male rats, hypoxia, 1.83 mg/kg",26.14 ± 2.04 g/L
same,albumin (second column),"[1]; male rats, hypoxia, 3.66 mg/kg",28.60 ± 1.12 g/L
same,albumin (second column),"[1]; male rats, hypoxia, 7.31 mg/kg",28.06 ± 1.31 g/L
same,albumin (second column),[1]; [11],28.38 ± 0.90 g/L
same,High density lipoprotein cholesterol,[2]; [5],1.30 ± 0.07 mmol/L
same,Low density lipoprotein cholesterol,[2]; [5],0.12 ± 0.01 mmol/L
same,Total cholesterol,[2]; [5],1.69 ± 0.11 mmol/L
same,High density lipoprotein cholesterol,[2]; [6],1.18 ± 0.14 mmol/L
same,Low density lipoprotein cholesterol,[2]; [6],0.10 ± 0.02 mmol/L
same,Total cholesterol,[2]; [6],1.56 ± 0.17 mmol/L
same,High density lipoprotein cholesterol,[2]; [7],1.14 ± 0.10 mmol/L
same,Low density lipoprotein cholesterol,[2]; [7],0.10 ± 0.02 mmol/L
same,Total cholesterol,[2]; [7],1.47 ± 0.11 mmol/L
same,High density lipoprotein cholesterol,[2]; [12],1.27 ± 0.09 mmol/L
same,Low density lipoprotein cholesterol,[2]; [12],0.10 ± 0.02 mmol/L
same,Total cholesterol,[2]; [12],1.69 ± 0.09 mmol/L
same,High density lipoprotein cholesterol,[2]; [8],1.28 ± 0.11 mmol/L
same,Low density lipoprotein cholesterol,[2]; [8],0.11 ± 0.02 mmol/L
same,Total cholesterol,[2]; [8],1.64 ± 0.13 mmol/L
same,"effect on total cholesterol, low-density and high-density lipoprotein cholesterol","[2]; female rats, normoxia",no significant effects
same,High density lipoprotein cholesterol,[2]; [9],1.39 ± 0.10 mmol/L
same,Low density lipoprotein cholesterol,[2]; [9],0.14 ± 0.03 mmol/L
same,Total cholesterol,[2]; [9],1.87 ± 0.10 mmol/L
same,"effect on total cholesterol, low-density and high-density lipoprotein cholesterol",[2]; hypoxia exposed female rats,no significant effects
same,effect on triglycerides,[2]; male rats exposed to hypoxia,is not found
same,High density lipoprotein cholesterol,"[2]; male rats, hypoxia, 0.91 mg/kg",1.03 ± 0.09 mmol/L
same,Low density lipoprotein cholesterol,"[2]; male rats, hypoxia, 0.91 mg/kg",0.16 ± 0.03 mmol/L
same,Total cholesterol,"[2]; male rats, hypoxia, 0.91 mg/kg",1.47 ± 0.15 mmol/L
same,Triglycerides,"[2]; male rats, hypoxia, 0.91 mg/kg",1.25 ± 0.64 mmol/L
same,High density lipoprotein cholesterol,"[2]; male rats, hypoxia, 1.83 mg/kg",1.23 ± 0.11 mmol/L
same,Low density lipoprotein cholesterol,"[2]; male rats, hypoxia, 1.83 mg/kg",0.20 ± 0.02 mmol/L
same,Total cholesterol,"[2]; male rats, hypoxia, 1.83 mg/kg",1.71 ± 0.90 mmol/L
same,Triglycerides,"[2]; male rats, hypoxia, 1.83 mg/kg",1.06 ± 0.35 mmol/L
same,High density lipoprotein cholesterol,"[2]; male rats, hypoxia, 3.66 mg/kg",1.28 ± 0.09 mmol/L
same,Low density lipoprotein cholesterol,"[2]; male rats, hypoxia, 3.66 mg/kg",0.19 ± 0.04 mmol/L
same,Total cholesterol,"[2]; male rats, hypoxia, 3.66 mg/kg",1.80 ± 0.16 mmol/L
same,Triglycerides,"[2]; male rats, hypoxia, 3.66 mg/kg",1.36 ± 0.58 mmol/L
same,High density lipoprotein cholesterol,"[2]; male rats, hypoxia, 7.31 mg/kg",1.23 ± 0.10 mmol/L
same,Low density lipoprotein cholesterol,"[2]; male rats, hypoxia, 7.31 mg/kg",0.16 ± 0.02 mmol/L
same,Total cholesterol,"[2]; male rats, hypoxia, 7.31 mg/kg",1.69 ± 0.10 mmol/L
same,Triglycerides,"[2]; male rats, hypoxia, 7.31 mg/kg",1.35 ± 0.36 mmol/L
same,High density lipoprotein cholesterol,[2]; [11],1.44 ± 0.15 mmol/L
same,Low density lipoprotein cholesterol,[2]; [11],0.19 ± 0.03 mmol/L
same,Total cholesterol,[2]; [11],1.95 ± 0.15 mmol/L
same,Triglycerides,[2]; [11],1.40 ± 0.74 mmol/L
same,effect on low density lipoprotein cholesterol,"[2]; male rats, low-dose",no significant effects
same,effect on total cholesterol and high-density lipoprotein cholesterol,"[2]; male rats, low-dose",reducing the amount
same,weight 1 day,"[3]; female mice, 1.32 mg/kg",20.31 ± 1.29 g
same,weight 3 days,"[3]; female mice, 1.32 mg/kg",22.33 ± 1.91 g
same,weight 1 day,"[3]; female mice, 2.64 mg/kg",19.83 ± 1.19 g
same,weight 3 days,"[3]; female mice, 2.64 mg/kg",22.22 ± 1.28 g
same,weight 1 day,"[3]; female mice, 5.28 mg/kg",20.58 ± 1.07 g
same,weight 3 days,"[3]; female mice, 5.28 mg/kg",22.52 ± 1.71 g
same,weight 1 day,"[3]; female mice, 10.56 mg/kg",20.13 ± 1.64 g
same,weight 3 days,"[3]; female mice, 10.56 mg/kg",21.92 ± 1.83 g
same,weight 1 day,"[3]; female mice, 21.12 mg/kg",20.19 ± 1.34 g
same,weight 3 days,"[3]; female mice, 21.12 mg/kg",22.49 ± 1.77 g
same,weight 1 day,"[3]; male mice, 1.32 mg/kg",15.46 ± 1.04 g
same,weight 3 days,"[3]; male mice, 1.32 mg/kg",17.74 ± 1.30 g
same,weight 1 day,"[3]; male mice, 2.64 mg/kg",15.40 ± 1.03 g
same,weight 3 days,"[3]; male mice, 2.64 mg/kg",17.46 ± 1.29 g
same,weight 1 day,"[3]; male mice, 5.28 mg/kg",15.51 ± 1.11 g
same,weight 3 days,"[3]; male mice, 5.28 mg/kg",17.41 ± 1.23 g
same,weight 1 day,"[3]; male mice, 10.56 mg/kg",15.32 ± 1.10 g
same,weight 3 days,"[3]; male mice, 10.56 mg/kg",16.20 ± 1.03 g
same,weight 1 day,"[3]; male mice, 21.12 mg/kg",15.45 ± 0.97 g
same,weight 3 days,"[3]; male mice, 21.12 mg/kg",17.54 ± 1.14 g
same,Creatine Kinase,[4]; [5],505.43 ± 202.03 U/L
same,Lactate dehydrogenase,[4]; [5],627.43 ± 253.66 U/L
same,α-hydroxybutyrate dehydrogenase,[4]; [5],270.28 ± 111.79 U/L
same,Creatine Kinase,[4]; [6],508.57 ± 235.83 U/L
same,Lactate dehydrogenase,[4]; [6],650.00 ± 338.13 U/L
same,α-hydroxybutyrate dehydrogenase,[4]; [6],286.71 ± 154.38 U/L
same,Creatine Kinase,[4]; [7],459.14 ± 239.34 U/L
same,Lactate dehydrogenase,[4]; [7],544.14 ± 314.26 U/L
same,α-hydroxybutyrate dehydrogenase,[4]; [7],233.43 ± 147.72 U/L
same,Creatine Kinase,[4]; [12],454.86 ± 241.51 U/L
same,Lactate dehydrogenase,[4]; [12],499.71 ± 320.46 U/L
same,α-hydroxybutyrate dehydrogenase,[4]; [12],210.14 ± 140.24 U/L
same,Creatine Kinase,[4]; [8],439.86 ± 222.18 U/L
same,Lactate dehydrogenase,[4]; [8],496.86 ± 259.65 U/L
same,α-hydroxybutyrate dehydrogenase,[4]; [8],208.86 ± 112.12 U/L
same,"effect on serum lactic dehydrogenase, creatine kinase, α-hydroxybutyrate dehydrogenase activity","[4]; female rats, normoxia",increasing
same,Creatine Kinase,[4]; [9],1024.00 ± 313.62 U/L
same,Lactate dehydrogenase,[4]; [9],1199.14 ± 204.93 U/L
same,α-hydroxybutyrate dehydrogenase,[4]; [9],537.29 ± 92.21 U/L
same,"effect on serum lactic dehydrogenase, creatine kinase, α-hydroxybutyrate dehydrogenase activity",[4]; hypoxia exposed female rats,has been not found
same,"effect on serum lactate dehydrogenase, creatine kinase, α-hydroxybutyrate dehydrogenase",[4]; hypoxia exposed male rats,has not been found
same,Creatine Kinase,"[4]; male rats, hypoxia, 0.91 mg/kg",443.63 ± 260.18 U/L
same,Lactate dehydrogenase,"[4]; male rats, hypoxia, 0.91 mg/kg",463.38 ± 364.37 U/L
same,α-hydroxybutyrate dehydrogenase,"[4]; male rats, hypoxia, 0.91 mg/kg",218.00 ± 173.09 U/L
same,Creatine Kinase,"[4]; male rats, hypoxia, 1.83 mg/kg",544.63 ± 418.71 U/L
same,Lactate dehydrogenase,"[4]; male rats, hypoxia, 1.83 mg/kg",650.13 ± 573.72 U/L
same,α-hydroxybutyrate dehydrogenase,"[4]; male rats, hypoxia, 1.83 mg/kg",286.75 ± 260.98 U/L
same,Creatine Kinase,"[4]; male rats, hypoxia, 3.66 mg/kg",544.50 ± 243.30 U/L
same,Lactate dehydrogenase,"[4]; male rats, hypoxia, 3.66 mg/kg",588.13 ± 360.36 U/L
same,α-hydroxybutyrate dehydrogenase,"[4]; male rats, hypoxia, 3.66 mg/kg",256.63 ± 154.55 U/L
same,Creatine Kinase,"[4]; male rats, hypoxia, 7.31 mg/kg",640.25 ± 333.16 U/L
same,Lactate dehydrogenase,"[4]; male rats, hypoxia, 7.31 mg/kg",767.38 ± 546.88 U/L
same,α-hydroxybutyrate dehydrogenase,"[4]; male rats, hypoxia, 7.31 mg/kg",325.63 ± 238.56 U/L
same,Creatine Kinase,[4]; [11],510.89 ± 240.61 U/L
same,Lactate dehydrogenase,[4]; [11],510.44 ± 275.48 U/L
same,α-hydroxybutyrate dehydrogenase,[4]; [11],218.67 ± 118.08 U/L
